How the values were obtained:
[1] = target: T1, hERG potassium ion channel (Homo sapiens, UniProt Q12809); experiment: Effect on hERG potassium ion channel (CHO hERG cells, manual patch clamp); type: cell-based; conditions: final 10 μM test concentration, read-out: hERG inhibitory concentration IC50
T1 construct: host or cells: CHO
Protocol: Assay 2: Effect on hERG Potassium Ion Channel 2.1 Cell Culture 2.1.1 Cells used in this experiment were CHO cell lines (supplied by Sophion Bioscience, Denmark) which were hERG cDNA transfectant and stably express hERG channels, and cell progeny was P15. Cells were cultured in medium containing the following ingredients Invitrogen): Ham's F12 medium, 10% (v/v) inactivated fetal bovine serum, […] Geneticin. 2.1.2 CHO hERG cells were grown in Petri dishes containing the above medium and cultured in an incubator containing 5% CO2 at 37° C. CHO hERG cells were transferred onto round glass plates in Petri dishes, and grown on the same culture medium under culture conditions as above for 24 h to 48 h prior to the electrophysiological experiments, and the density of CHO hERG cells on each round glass plate needs to meet the requirements that the vast majority of cells are independent and individual. 2.2 Experimental Solution The following solutions (supplied by Sophion) were used for electrophysiological recording as shown in Table 3. The reagents used in this test were provided by Sigma. [table] 2.3 Electrophysiological Recording System In this experiment, whole-cell current recording was performed using a manual patch clamp system (HEKA EPC-10 signal amplification and digital conversion system, purchased from HEKA Electronic, Germany). The round glass slide, surface of which CHO hERG cells were grown on was placed in an electrophysiological recording slot under an inverted microscope. Extracellular fluid was used for steady perfision in recording slot (approximately 1 ml per minute). A conventional whole-cell patch clamp current recording technique was used in the experiment. Unless otherwise specified, experiments were performed at normal room temperature (25° C.). Cell clamping was at −80 mV. Cell clamping voltage depolarized to +20 mV to activate hERG potassium channel, clamping to −50 mV after 5 sec to eliminate inactivation and generate tail currents. The tail current peak was used as a value for hERG current. The hERG potassium current recorded in the above steps could be superfused for test drug after the steady perfusion state of the extracellular fluid in the recording slot is stabilized until the inhibition of the hERG current by the drug reached a steady state. The coincidence of the last three consecutive current recording lines was generally used as a criterion to determine whether the state is stable. After reaching a steady state, perfused with extracellular fluid until hERG current returned to the value before the drug adding. One or more drugs could be tested on a single cell, or multiple concentrations of the same drug, but needed to be rinsed with extracellular fluid between different drugs. […] 2.4 Compound Treatment and Dilution The compound was firstly dissolved in DMSO to a concentration of 10 mM and then the compound was diluted 1000-fold to the final […] test concentration using an extracellular solution. The final concentration of DMSO in the compound test solution was equal to 0.1%. […] All stock solutions and test solutions were subjected to regular 5-10 minute sonication and shaken to ensure complete dissolution of the compound. 2.5 Data Analysis The test data were analyzed by the data analysis software provided by HEKA Patchmaster (V2x73.2), Microsoft Excel and Graphpad Prism 5.0.

hNav1.7 = target: T2, hNav1.7 (Homo sapiens, UniProt Q15858); experiment: Manual patch clamp experiment hNav1.7 (CHO-hNav1.7 stable cell line); type: cell-based; conditions: for inhibition at 0.1 µM: compound at 100 nM, read-out: Inhibition of Nav1.7 100 nM(%); for inhibition at 1 µM: compound at 1000 nM, read-out: Inhibition of Nav1.7 1000 nM(%)
T2 construct: host or cells: CHO
T2 sequence (Q15858 whole entry): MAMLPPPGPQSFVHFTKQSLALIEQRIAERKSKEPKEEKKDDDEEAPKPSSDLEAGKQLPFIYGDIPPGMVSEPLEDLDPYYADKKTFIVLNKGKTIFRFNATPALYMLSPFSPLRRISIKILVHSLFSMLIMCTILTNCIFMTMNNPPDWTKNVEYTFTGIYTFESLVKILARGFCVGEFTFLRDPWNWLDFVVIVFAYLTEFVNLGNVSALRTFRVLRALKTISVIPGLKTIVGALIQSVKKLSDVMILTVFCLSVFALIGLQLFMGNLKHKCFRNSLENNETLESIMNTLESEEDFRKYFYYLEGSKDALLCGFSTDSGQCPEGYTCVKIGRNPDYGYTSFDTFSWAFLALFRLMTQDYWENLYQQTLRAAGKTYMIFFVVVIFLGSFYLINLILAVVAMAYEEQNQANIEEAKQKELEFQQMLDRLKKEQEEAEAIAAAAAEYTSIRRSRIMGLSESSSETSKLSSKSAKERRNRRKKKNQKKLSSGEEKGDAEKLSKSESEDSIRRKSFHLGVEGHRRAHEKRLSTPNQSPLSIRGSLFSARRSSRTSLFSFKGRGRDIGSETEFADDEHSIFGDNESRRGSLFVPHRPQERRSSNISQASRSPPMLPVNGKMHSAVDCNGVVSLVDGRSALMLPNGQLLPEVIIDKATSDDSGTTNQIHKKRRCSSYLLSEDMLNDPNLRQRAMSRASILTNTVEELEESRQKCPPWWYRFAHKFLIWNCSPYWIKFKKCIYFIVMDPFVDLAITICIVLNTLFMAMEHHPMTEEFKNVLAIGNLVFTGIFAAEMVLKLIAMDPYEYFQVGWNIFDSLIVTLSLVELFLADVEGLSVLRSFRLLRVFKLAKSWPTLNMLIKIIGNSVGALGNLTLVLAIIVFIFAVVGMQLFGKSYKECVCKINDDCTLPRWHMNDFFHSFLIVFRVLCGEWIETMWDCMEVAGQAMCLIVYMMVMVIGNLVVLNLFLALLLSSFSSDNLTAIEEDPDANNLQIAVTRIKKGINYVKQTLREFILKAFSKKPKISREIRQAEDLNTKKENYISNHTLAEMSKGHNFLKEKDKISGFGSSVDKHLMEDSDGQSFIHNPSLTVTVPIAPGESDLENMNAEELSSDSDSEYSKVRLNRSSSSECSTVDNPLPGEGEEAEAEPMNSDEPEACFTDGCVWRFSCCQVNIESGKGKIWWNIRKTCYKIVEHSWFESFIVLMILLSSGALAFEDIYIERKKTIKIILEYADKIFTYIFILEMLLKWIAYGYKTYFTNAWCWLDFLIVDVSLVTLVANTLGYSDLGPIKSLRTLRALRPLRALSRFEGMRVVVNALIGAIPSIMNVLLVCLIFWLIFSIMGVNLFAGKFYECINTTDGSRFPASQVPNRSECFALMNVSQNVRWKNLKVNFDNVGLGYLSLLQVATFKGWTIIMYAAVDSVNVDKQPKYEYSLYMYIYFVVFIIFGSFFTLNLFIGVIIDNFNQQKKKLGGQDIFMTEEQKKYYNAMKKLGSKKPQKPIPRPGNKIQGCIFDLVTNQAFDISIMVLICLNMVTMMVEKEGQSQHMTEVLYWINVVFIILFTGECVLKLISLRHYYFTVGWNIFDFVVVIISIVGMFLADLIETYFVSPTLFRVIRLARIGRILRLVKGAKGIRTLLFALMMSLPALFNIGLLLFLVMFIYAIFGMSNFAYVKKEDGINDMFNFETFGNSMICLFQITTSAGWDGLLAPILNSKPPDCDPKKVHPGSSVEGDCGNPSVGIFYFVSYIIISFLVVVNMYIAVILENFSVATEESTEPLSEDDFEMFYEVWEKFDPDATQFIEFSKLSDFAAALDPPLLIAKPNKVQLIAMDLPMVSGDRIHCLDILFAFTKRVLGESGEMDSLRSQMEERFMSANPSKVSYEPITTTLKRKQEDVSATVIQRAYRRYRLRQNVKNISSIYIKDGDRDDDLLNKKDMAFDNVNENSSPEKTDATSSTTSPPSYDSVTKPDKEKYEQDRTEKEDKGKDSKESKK
From the text: Assay 1: Manual Patch Clamp Experiment of Sodium Ion (hNav1.7, hNav1.5 and hNaV1.8) and Calcium Ion (hCav3.2) Channels
hNav1.7, hNav1.5 Manual Patch Clamp Experiment:
Patch voltage clamp electrophysiology allows for the direct measurement and quantification of current block of voltage-gated sodium channels (NaV's), and allows the determination of the time and voltage-dependence of block which has been interpreted as differential binding to the resting, open and inactivated states of the sodium channel to reflect the compound's inhibitory or activating effects (Hille, B., Journal of General Physiology (1977), 69: 497-515).
Representative compounds of the present invention were subject to a manual patch clamp experiment and the purpose of this study was to test the effect of compounds on this ion channel current on a stable cell line transfected with a specific ion channel using a manual patch clamp method. The used stable cell lines CHO-hNav1.7 and HEK-hNav1.5 were from Genionics and WuXi Apptec (Shanghai) respectively.
Manual patch clamp experimental program is as follows:
(1) Preparation of solutions and compounds: The whole cell patch clamp technique was used to record hNav1.7 and hNav1.5 currents. In the experiment, the composition of extracellular fluid (mM): HEPES: 5, NaCl: 40, KCl: CaCl2: 1, MgCl2: 1, CdCl2: 0.1, TEA-Cl: 20. The pH was adjusted to 7.3 with NaOH and the osmotic pressure was adjusted to 310-320 mOsm with sucrose, filtered and stored at 4° C. The composition of the intracellular fluid (mM): HEPES: 10, NaCl: 10, CsOH: 5, CsF: 140, EGTA: 1. The pH was adjusted to 7.3 with CsOH and the osmotic pressure was adjusted to 280-290 mOsm with sucrose, filtered and stored at −20° C.
The positive control and the test compound were firstly dissolved in 100% DMSO (Sigma-Aldrich, D2650), configured as stock solution at a concentration (100 nM, 1000 nM).) The above stock solution was serially diluted with DMSO prior to the experiment, the solution was further diluted with extracellular solution to obtain the test solution of the desired concentration.
(2) Manual Patch Clamp Experiment: The cell suspension was added to a 35 mm petri dish and placed on an inverted microscope stage. The cells were perfused with an extracellular fluid and the flow rate was 1-2 mL/min after cell adherence. The glass microelectrode was prepared in two steps by a microelectrode puller with an inlet water resistance of 2-5 MΩ. A/D-D/A digital-analog conversion was performed by Digidata 1440 (Molecular Devices) and pCLAMP software (version 10.2, Molecular Devices) for stimulation and signal acquisition; the signal was amplified by patch clamp amplifier (Multiclamp 700B, Molecular Devices), and filtering is 4 KHz.
Two different voltage stimulation procedures were used in the hNav1.7 and hNav1.5 manual patch clamp experiments.
One is the inactivation stimulation program, the clamp potential is set at V1/2 of the corresponding channel, i.e., about 50% of the channels are inactivated, then the voltage is applied to −120 mV for 50 ms, then depolarized to −10 mV for 20 ms leading to sodium current, and finally returned to the clamp potential. This stimulation program can also be called channel state-dependent voltage stimulation program.
The other is the non-inactivation stimulation program, the clamp potential is maintained at −120 mV, voltage stimulation is given to −10 mV for 20 ms leading to sodium current, and finally returned to the clamp potential. That is, all channels have not experienced inactivation status, but activate directly from the resting state under the conditions of the stimulation program.
The time intervals of these two voltage stimulation programs were 10 s. The inhibitory effect of the compound was calculated by the change of the current before and after dosing, the IC50 value was fitted by the Hill equation.

T1 sequence (Q12809 whole entry): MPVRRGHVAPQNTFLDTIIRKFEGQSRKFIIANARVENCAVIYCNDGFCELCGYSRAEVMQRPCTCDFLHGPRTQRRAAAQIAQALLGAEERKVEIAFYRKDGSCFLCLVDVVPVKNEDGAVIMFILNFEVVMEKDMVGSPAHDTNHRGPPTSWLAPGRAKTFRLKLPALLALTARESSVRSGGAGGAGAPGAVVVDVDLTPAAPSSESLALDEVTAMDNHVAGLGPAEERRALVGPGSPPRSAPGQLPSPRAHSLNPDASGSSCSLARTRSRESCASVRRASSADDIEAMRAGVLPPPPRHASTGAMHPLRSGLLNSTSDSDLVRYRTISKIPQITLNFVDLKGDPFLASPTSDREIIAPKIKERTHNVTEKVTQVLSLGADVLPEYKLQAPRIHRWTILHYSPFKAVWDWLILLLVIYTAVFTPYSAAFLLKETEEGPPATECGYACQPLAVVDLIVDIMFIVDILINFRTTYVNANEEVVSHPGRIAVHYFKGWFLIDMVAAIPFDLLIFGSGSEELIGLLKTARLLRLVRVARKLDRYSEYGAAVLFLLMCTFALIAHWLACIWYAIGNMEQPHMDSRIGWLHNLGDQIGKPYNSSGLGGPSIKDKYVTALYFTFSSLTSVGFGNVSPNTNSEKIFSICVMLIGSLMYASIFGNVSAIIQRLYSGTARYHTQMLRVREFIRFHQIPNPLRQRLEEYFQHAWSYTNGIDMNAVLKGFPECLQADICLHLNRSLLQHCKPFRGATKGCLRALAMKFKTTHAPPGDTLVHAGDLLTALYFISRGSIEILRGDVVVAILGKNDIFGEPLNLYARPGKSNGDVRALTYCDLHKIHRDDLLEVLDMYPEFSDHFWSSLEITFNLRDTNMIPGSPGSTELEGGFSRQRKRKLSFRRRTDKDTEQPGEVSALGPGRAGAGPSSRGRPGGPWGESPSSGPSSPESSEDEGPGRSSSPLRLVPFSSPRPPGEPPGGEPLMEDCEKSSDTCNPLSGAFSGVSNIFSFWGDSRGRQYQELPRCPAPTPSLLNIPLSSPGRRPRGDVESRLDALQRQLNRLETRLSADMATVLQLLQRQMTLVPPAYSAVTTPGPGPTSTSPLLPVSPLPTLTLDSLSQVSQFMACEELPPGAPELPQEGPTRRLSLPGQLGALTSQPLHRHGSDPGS

Row | inhibition at 0.1 µM (hNav1.7) [%] | inhibition at 1 µM (hNav1.7) [%] | SMILES | IC50 [1] [µM]
1 | 90.8 | 99.5 | Cc1cc(N2CCN(Cc3cc(F)c(C(=O)NS(=O)(=O)C4CC4)cc3Cl)CC2)c(C)cc1Cl [Compound Z-183] | > 10
2 | 83.3 | 100 | Cc1cc(N2CCN(Cc3cc(F)c(C(=O)NS(=O)(=O)C4CC4)cc3Cl)CC2)c(F)cc1Cl [Compound Z-186] | > 10
3 | 89.7 | 100 | Cc1c(Cl)ccc(N2CCN(Cc3cc(F)c(C(=O)NS(=O)(=O)C4CC4)cc3Cl)CC2)c1Cl [Compound Z-187] | > 10

— patent US10815197B2, “N-sulfonyl benzamides as voltage-gated sodium channel inhibitors” (SHANGHAI HAIYAN PHARMACEUTICAL TECHNOLOGY CO., LTD., priority 2016, dated 2020)
